Several values for one entry are separate records, joined by “and”; a condition that tells them apart may be missing. Identical values can stand only once. Like-named read-outs stand apart in the source and are kept apart here.
Legend:
A549 cells [1] = test: MTT assay for cytotoxicity, A549 cells; assay type: cell-based, human; settings: for anti-NSCLC activity (cytotoxicity): A549 cells, 100 µM; for IC50: Homo sapiens, A549, MTT, 72 h
Protocol: (§1) Dulbecco’s modified Eagle’s medium (DMEM) (Wako Pure Chemical Industries, Osaka, Japan) containing 10% fetal bovine serum (FBS) (Equitech-Bio, Kerrville, TX, USA) was used for the culture of A549 and MCF-7 human cancer cells, while RPMI 1640 (Wako Pure Chemical Industries) containing 10% FBS was used for the culture of Jurkat cells, derived from human leukemia. On the other hand, PBMCs (Precision Bioservices, Frederick, MD, USA) were incubated in RPMI 1640 supplemented with 10% human serum AB (HS) (Gemini, Woodland, CA, USA). All media also incorporated 89 μg/mL of streptomycin (Meiji Seika Pharma, Tokyo, Japan), and cells were maintained at 37 °C in a 95% air and 5% CO2 humidified chamber. The microtiter tissue culture plates (24-well and 96-well) (Iwaki, Asahi Glass Co., Chiba, Japan) were used for cancer cells (4 × 10^4 cells/mL) and PBMCs (5 × 10^5 cells/mL), respectively. Prior to drug treatment, all of these cells were incubated for 72 h. The optimal cell density for cytotoxicity testing was established in preliminary experiments. […] The final concentration of DMSO in the culture medium was adjusted to 1% [61, 62, 63].
(§2) The cellular reduction in MTT (Dojindo Molecular Technologies, Kumamoto, Japan) was measured as described in the literature with minor modifications. […] MTT was then added at a final concentration 0.275 mg/mL and incubated for a further 4 h at 37 °C. The medium was removed and 100 μL DMSO was added to each well to dissolve the formazan crystals. The dissolved crystals were diluted (1:10) with DMSO, and 100 μL of the solution was transferred to a 96-well microtiter plate (Iwaki, Asahi Glass Co.). Absorbance was measured at 570 nm using an Infinitive M1000 microplate spectrophotometer (Tecan, Groding, Austria). Each concentration was tested in triplicate, and the IC50 values were determined as the drug concentrations that reduced absorbance to 50% of the control values.

MCF-7 cells [2] = test: MTT assay for cytotoxicity, MCF-7 cells; assay type: cell-based, human; settings: for IC50: Homo sapiens, MCF7, MTT, 72 h; for anti-breast cancer activity (cytotoxicity): MCF-7 cells, 100 µM
Protocol: as §1, §2

Jurkat cells = test: MTT assay for cytotoxicity, Jurkat cells; assay type: cell-based, human; settings: for IC50: Homo sapiens, Jurkat, MTT, 72 h
Protocol: as §1, §2

PBMCs = test: MTT assay for cytotoxicity, PBMCs (healthy); assay type: cell-based; settings: PBMC, 72 h, healthy cells
Protocol: as §1
The cellular reduction in MTT (Dojindo Molecular Technologies, Kumamoto, Japan) was measured as described in the literature with minor modifications. […] Absorbance was measured at 570 nm using an Infinitive M1000 microplate spectrophotometer (Tecan, Groding, Austria). […]

A549 cells [3] = test: Annexin V/ethidium homodimer III staining for apoptosis, A549 cells; assay type: cell-based, human; settings: IC50 concentration, 24 h
Protocol: (§3) Compound B-4 at an IC50 concentration was administered to A549 and MCF-7 cells for 24 h. After detachment from the plate with 0.05% trypsin and washing twice with 1× binding buffer, the cells were incubated for 20 min at r.t. in the dark with a staining solution bearing 50 μL 1× binding buffer, 4 μL FTIC annexin V solution, 4 μL ethidium homodimer III solution, and 4 μL Hoechst 33342 solution. The cells were washed with 1× binding buffer, fixed with 2% paraformaldehyde, washed with PBS, and analyzed by a Biorevo Fluorescence BZ-9000 (Keyence, Osaka, Japan) integrated fluorescence microscope.

MCF-7 cells [4] = test: Annexin V/ethidium homodimer III staining for apoptosis, MCF-7 cells; assay type: cell-based, human; settings: IC50 concentration, 24 h
Protocol: as §3

EGFR kinase = target: T1, EGFR kinase (Homo sapiens, UniProt P00533); test: EGFR inhibition assay (EGFR Kinase Enzyme System, ADP-Glo); assay type: biochemical
T1 construct: EGFR kinase (human, recombinant; amino acids 695–end); purchased Promega Corporation V3831
Protocol: The kinase profiling assay protocol (EGFR Kinase Enzyme System, V3831) was performed following the manufacturer’s instructions (Promega Corporation, Madison, WI, USA) with minor modifications. As per the protocol, 95 μL of 2.5× kinase buffer and 15 μL of 100 μM ATP solution were used for the dilution of the EGFR kinase (human, recombinant; amino acids 695–end) and its substrate (4:1 Glu, Tyr). Kinase reactions were performed in a 384-well plate in the presence of 2 μL of kinase working stock, 2 μL of ATP/substrate working stock, and 1 μL of the test compound solution ([…]) or 5% DMSO solution. After incubating for 2 h at r.t., kinase activity was assessed using the ADP-Glo Kinase Assay (Promega Corporation, Madison, WI, USA) following the manufacturer’s instructions. Specifically, 5 μL of ADP-Glo Reagent was added to each well and incubated for 40 min, followed by the addition of 10 μL of Kinase Detection Reagent and further incubation for 30 min at room temperature. Luminescence was measured using the Infinite M1000 microplate reader (Tecan, Grödig, Austria) with an integration time of 0.5–1 s to evaluate the kinase inhibitory effects of the compounds in a dose-dependent manner.

A549 cells [5] = settings: cited from earlier work
EGFR = settings: cited from earlier work; for IC50: read-out: EGFR inhibition IC50
MCF-7 cells [6] = settings: cited from earlier work
[7] = thiazolyl–pyrazolines, read-out: IC50 A549 cells
[8] = quinoline/chalcone hybrids with 1,2,4-triazole
[9] = triazoloquinoxaline–chalcone derivatives

T1 sequence (P00533 695-1210 limits assumed): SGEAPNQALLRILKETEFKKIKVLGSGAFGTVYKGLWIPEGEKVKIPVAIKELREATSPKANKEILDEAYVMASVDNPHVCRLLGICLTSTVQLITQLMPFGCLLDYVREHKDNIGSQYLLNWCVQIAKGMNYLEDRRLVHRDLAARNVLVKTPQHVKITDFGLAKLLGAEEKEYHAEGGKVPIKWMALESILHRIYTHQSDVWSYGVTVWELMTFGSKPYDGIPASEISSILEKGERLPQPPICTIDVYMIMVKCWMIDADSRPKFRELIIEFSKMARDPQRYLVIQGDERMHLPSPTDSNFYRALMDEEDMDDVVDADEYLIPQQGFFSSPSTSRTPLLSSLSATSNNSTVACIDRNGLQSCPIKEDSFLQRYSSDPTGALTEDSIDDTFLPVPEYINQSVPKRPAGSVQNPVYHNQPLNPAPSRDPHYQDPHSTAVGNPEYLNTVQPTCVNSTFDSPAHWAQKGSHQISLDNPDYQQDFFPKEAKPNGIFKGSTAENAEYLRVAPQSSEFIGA

For `COc1ccc(C(=O)/C=C/c2cnc(-c3ccc(Cl)cc3)nc2)cc1OC` [B-4, (E)-3-(2-(4-chlorophenyl)pyrimidin-5-yl)-1-(3,4-dimethoxyphenyl)prop-2-en-1-one], the “anti-NSCLC activity (cytotoxicity)” value (A549 cells [1]) was 70%, the IC50 (A549 cells [1]) was 20.5 ± 2.71 µM and the IC50 (MCF-7 cells [2]) was 6.7 ± 1.02 µM. For the same compound, the “anti-breast cancer activity (cytotoxicity)” value (from here on “anti-breast cancer activity”) (MCF-7 cells [2]) was 70%, the IC50 (Jurkat cells) was 1.5 ± 0.4 µM and the “SI (Selectivity Index)” value (Jurkat cells; IC50 for PBMC/IC50 for Jurkat cell line) was 45.93. The IC50 (PBMCs) was 68.9 ± 10.3 µM, the “cells that underwent apoptosis” value (A549 cells [3]) was 11.9% and the “cells that underwent apoptosis” value (MCF-7 cells [4]) was 10.2%. For the same compound, the EGFR inhibition (EGFR kinase; 1 μM) was “weak inhibition” and the inhibition at 10 µM (EGFR kinase; 10 μM) was 46%.

In the case of `COc1ccc(C2=NN(C(N)=S)C(c3cnc(-c4ccc(Cl)cc4)nc3)C2)cc1OC` (centres unmarked) [B-9, 5-(2-(4-chlorophenyl)pyrimidin-5-yl)-3-(3,4-dimethoxyphenyl)-4,5-dihydro-1H-pyrazole-1-carbothioamide], the “anti-NSCLC activity (cytotoxicity)” value (A549 cells [1]) is reported as 43% and the “anti-breast cancer activity” value (MCF-7 cells [2]) is reported as 33%.

For `COc1ccc(C2=NN(c3nc(-c4ccc(Cl)cc4)cs3)C(c3cnc(-c4ccc(Cl)cc4)nc3)C2)cc1OC` (centres unmarked) [BH-4, 2-(5-(2-(4-Chlorophenyl)pyrimidin-5-yl)-3-(3,4-dimethoxyphenyl)-4,5-dihydro-1H-pyrazol-1-yl)-4-(4-(chloro)phenyl)thiazole], the “anti-breast cancer activity” value (MCF-7 cells [2]) was 38%.

With `COc1ccc(C2=NN(c3nc(-c4ccc(Br)cc4)cs3)C(c3cnc(-c4ccc(Cl)cc4)nc3)C2)cc1OC` (centres unmarked) [BH-5, 2-(5-(2-(4-Chlorophenyl)pyrimidin-5-yl)-3-(3,4-dimethoxyphenyl)-4,5-dihydro-1H-pyrazol-1-yl)-4-(4-(bromo)phenyl)thiazole] the “anti-NSCLC activity (cytotoxicity)” value (A549 cells [1]) was 37% and the “anti-breast cancer activity” value (MCF-7 cells [2]) was 39%.

In the case of `Clc1ccc(C2CC(c3ccc4ccccc4c3)=NN2c2nc(-c3ccc(Br)cc3)cs2)cc1` (centres unmarked) [BTT-5], the IC50 (A549 cells [5]; naphthalene-linked pyrazoline–thiazole hybrids, read-out: anti-NSCLC IC50 (A549 cells)) is given as 9.51 µM and the EGFR inhibition (EGFR; 10 µM concentration, 10 µM) is given as 58% and 58.32%.

In the case of `N#Cc1ccc(-c2csc(N3N=C(c4ccc(N5CCOCC5)cc4)CC3c3ccc(Cl)cc3)n2)cc1` (centres unmarked) [Compound 3f], the IC50 (A549 cells [5]; [7]) is given as 10.8 µM, the IC50 (MCF-7 cells [6]; thiazolyl–pyrazolines) is given as 8.05 µM and the IC50 (EGFR; thiazolyl–pyrazolines) is given as 4.34 µM.

For `COc1ccc2nc(Cl)c(C3CC(c4ccc(C)cc4)=NN3c3nc(-c4ccc(F)cc4)cs3)cc2c1` (centres unmarked) [Compound 6c], the IC50 (MCF-7 cells [6]; thiazolyl–pyrazolines) is given as 0.227 µM and the IC50 (EGFR; thiazolyl–pyrazolines) is given as 0.0318 µM.

For `COc1ccc(C2CC(c3ccc(OC)c(OC)c3)=NN2c2nc(-c3ccccc3)cs2)cc1` (centres unmarked) [Compound 6e], the IC50 (MCF-7 cells [6]; thiazolyl–pyrazolines) is given as 7.21 µM and the IC50 (EGFR; thiazolyl–pyrazolines) is given as 0.009 µM.

For `C=CCn1c(SCC(=O)Nc2ccc(C(=O)/C=C/c3ccc(Cl)cc3)cc2)nnc1-c1cc(-c2ccccc2)nc2ccccc12` [Compound 7b], the IC50 (A549 cells [5]; quinoline/chalcone hybrids with 1,2,4-triazole, read-out: IC50 A549 cells) is listed as 3.6 ± 0.05 µM, the IC50 (MCF-7 cells [6]; [8]) is listed as 3.3 ± 0.08 µM and the IC50 (EGFR; [8]) is listed as 1.3 ± 1.2 µM.

In the case of `CCc1nnc2c(Nc3ccc(C(=O)/C=C/c4ccc(OC)cc4)cc3)nc3ccccc3n12` [Compound 7e], the IC50 (MCF-7 cells [6]; [9]) is listed as 8.23 ± 0.25 µM and the IC50 (EGFR; [9]) is listed as 0.083 ± 0.04 µM.

In the case of `CCOC(=O)c1sc(N2N=C(c3ccc(Cl)cc3Cl)CC2c2ccc(OC)cc2)nc1C` (centres unmarked) [Compound 10b], the IC50 (A549 cells [5]; [7]) is given as 4.22 µM and the IC50 (EGFR; thiazolyl–pyrazolines) is given as 0.0407 µM.

In the case of `COc1ccc(C2CC(c3ccc(Cl)cc3Cl)=NN2c2nc(C)c(C(=O)Nc3ccccc3)s2)cc1OC` (centres unmarked) [Compound 10d], the IC50 (A549 cells [5]; [7]) is listed as 2.92 µM and the IC50 (EGFR; thiazolyl–pyrazolines) is listed as 0.0325 µM.

In the case of `CS(=O)(=O)CCNCc1ccc(-c2ccc3ncnc(Nc4ccc(OCc5cccc(F)c5)c(Cl)c4)c3c2)o1` [Lapatinib], the IC50 (A549 cells [1]) is reported as 18.2 ± 3.25 µM, the IC50 (MCF-7 cells [2]) is reported as 9.71 ± 1.12 µM and the IC50 (Jurkat cells) is reported as 1.43 ± 0.35 µM. The IC50 (PBMCs) was 12.7 ± 2.08 µM.
